Entries after “also recorded” stand apart in the source; their conditions may differ.
Experiments:
[1] = system: rat pheochromocytoma (PC12) cells; assay: bFGF-induced neurite outgrowth assay in PC12 cells; format: cell-based
Description: Undifferentiated rat PC12 cells were obtained from American Type Culture Collection (Rockville, Md.) and plated at low density in 60 mm dishes. Three groups of 25-50 cells/dish were counted at baseline and at 3 days and 8 days after the addition of test patient protein-A eluate fractions (1:50 or 1:100 dilutions corresponding to 1-30 ug/mL protein). Neurite outgrowth represents the percentage of PC12 cells expressing more than one neurite. A neurite is defined as a cell process that is at least 2 cell diameters in length. Results represent the mean±SD of triplicate determinations in each test fraction.
Undifferentiated rat PC12 cells obtained from the ATCC were plated at low density. Groups of 25-50 cells/dish were counted at baseline and at 3 and 8 days after exposure to 10 ng/mL basic fibroblast growth factor in the presence or absence of test diabetic plasma IgG fractions and Y27632. Results represent triplicate determinations for each test fraction.

endothelial cells = assay: F-actin stress fiber formation in endothelial cells (phalloidin staining); format: cell-based, bovine; conditions: co-incubation, 10 uM
Description: For bright field images, the ˜90% confluent endothelial cells in 24-well plates with various treatments were visualized under Zeiss Axiovert 200 inverted microscope with phase contrast 20× dry lens (NA 0.4). Alternatively, the cells cultured in glass-bottom dishes were monitored under transmission light mode (DIC images) with Zeiss LSM510 META confocal microscope with 63×, water immersion lens (NA 1.2). The live cell DIC images of the endothelial cells were captured continuously up to 15 minutes at room temperature at the speed of about 1 frame/min. For fluorescence images, the cells were cultured on glass-bottom dishes for two days before the experiments. At indicated time point after addition of autoantibodies, 10 μM Hoechst dye 33342 (Sigma Inc., St Louis, Mo.) was added into the culture medium for 15 min at 37° C. in a dark chamber. As described previously, the chromatin condensation and fragmentation was visualized with the Zeiss confocal laser scanning microscope using a 63× water immersion objective, with the excitation wavelength set at 351 nm and the emission filter set at 385-470 nm. We used Texas Red-labeled phalloidin to visualize actin stress fibers. First, we aseptically inserted glass coverslips (12-mm diameter) into 24-well tissue culture plate. […]

Bovine endothelial cells = assay: Apoptosis assay (Hoechst 33342 / propidium iodide) in endothelial cells; format: cell-based
Description: Apoptosis Assay. Endothelial cells were cultured in 24-well plates to reach ˜90% confluence. Purified IgG was added directly to cultured medium. At 0, 6, 12, 18 and 24 hours, culture media was removed and the cells were incubated in a balanced salt solution (BSS) (140 mM NaCl, 2.8 mM KCl, 2 mM CaCl2, 2 mM MgCl2, 10 mM HEPES, pH 7.2) containing propidium iodide (PI, 25 μg/ml) and Hoechst 33342 (10 μM, Sigma) for 15 min. The cells were examined by Zeiss Axiovert 200M microscope using 20× objective (NA 0.4) for phase contrast, fluorescent blue (Hoechst) and red (PI) images. As a membrane permeable dye, Hoechst stains all nuclei with bright blue, while cell impermeable PI only stains the nuclei in the dying cells, which lost their membrane integrity. Early apoptotic cells whose membranes are still intact present only blue nuclei, but the initiation of DNA fragmentation result in patched labeling of the nuclei by Hoechst (14). Cells entering the late apoptotic stage have bright red condensed chromatin or fragmented nuclei that distinguish them from necrotic ones, which have a uniform red color usually with enlarged nuclei. For each experiment, a minimum of total 400 cells for each duplicated sample were counted from at least five randomly chosen fields and the percentage of total apoptotic cells was obtained by adding early and late apoptotic cells. Each experiment was repeated at least three times.

C[C@@H](N)[C@H]1CC[C@H](C(=O)Nc2ccncc2)CC1 [Patient Y27632, Y27632]
restoration of bFGF-induced neurite outgrowth in presence of blocking autoantibodies ([1]; Y27632 1 uM, bFGF 10 ng/mL, autoantibodies from three diabetic patients): completely restored neurite outgrowth
restoration of bFGF-induced neurite outgrowth in presence of blocking autoantibodies ([1]; co-incubation, concentration not stated): abolished; also recorded: neutralization of inhibition; also recorded: reversal
restoration of bFGF-induced neurite outgrowth in presence of blocking autoantibodies ([1]; co-incubation, concentration not stated, listed as Y-27632): completely restored
inhibition of autoantibody-induced stress fiber formation (endothelial cells): largely inhibited
inhibition of endothelial cell apoptosis from one diabetic IgG fraction (Bovine endothelial cells; 10 uM, n=3 experiments): partially inhibited

CC(C)[C@H](NC(=O)c1ccc2ccccc2n1)C(=O)N[C@@H](CC(=O)O)C(=O)COc1c(F)cccc1F [Q-VD-OPH]
block of apoptosis in cells exposed to IgG from patient #2 (Bovine endothelial cells; 10 μM, 12 hours): almost completely blocked apoptosis
block of apoptosis in cells exposed to diabetic plasma IgG (Bovine endothelial cells; concentration not given): nearly completely blocked apoptosis

bFGF: Recombinant human bFGF from Austral Biologicals
rescue or prevention of eluate-induced apoptosis (Bovine endothelial cells; 100 pg/mL bFGF co-incubated with 4-30 ug/mL active protein-A eluate from 5 of 5 diabetic maculopathy plasmas, preliminary): did not rescue or prevent apoptosis

— patent US7972798B2, “Method for identifying diabetic patients at increased risk for pathological complications” (The United States of America as represented by the …, priority 2007, dated 2011)
